Experimental data as given in ChEMBL document CHEMBL4507316 (2021).
Calls of active or inactive are those of the source. The rule behind the calls is not given here.

What was measured:
[1] = biological target: Activin receptor type-1B (Homo sapiens) (UniProt P36896); assay: ACV-R1B ProQinase selectivity panel; conditions: Compound concentration 1.0 uM
[2] = biological target: Cyclin-dependent kinase 5/CDK5 activator 1 (Homo sapiens) (UniProt Q00535+Q15078); assay: CDK5/p35NCK ProQinase selectivity panel; type: protein-complex assay; conditions: Compound concentration 1.0 uM
[3] = biological target: cGMP-dependent protein kinase 1 (Homo sapiens) (UniProt Q13976); assay: PRKG1 ProQinase selectivity panel; conditions: Compound concentration 1.0 uM
[4] = biological target: Eukaryotic translation initiation factor 2-alpha kinase 1 (Homo sapiens) (UniProt Q9BQI3); assay: HRI ProQinase selectivity panel; conditions: Compound concentration 1.0 uM
[5] = biological target: RAC-gamma serine/threonine-protein kinase (Homo sapiens) (UniProt Q9Y243); assay: AKT3 ProQinase selectivity panel; conditions: Compound concentration 1.0 uM
[6] = biological target: Dual specificity tyrosine-phosphorylation-regulated kinase 4 (Homo sapiens) (UniProt Q9NR20); assay: DYRK4 ProQinase selectivity panel; conditions: Compound concentration 1.0 uM
Chain of Dual specificity tyrosine-phosphorylation-regulated kinase 4 (Homo sapiens) (Q9NR20 whole entry): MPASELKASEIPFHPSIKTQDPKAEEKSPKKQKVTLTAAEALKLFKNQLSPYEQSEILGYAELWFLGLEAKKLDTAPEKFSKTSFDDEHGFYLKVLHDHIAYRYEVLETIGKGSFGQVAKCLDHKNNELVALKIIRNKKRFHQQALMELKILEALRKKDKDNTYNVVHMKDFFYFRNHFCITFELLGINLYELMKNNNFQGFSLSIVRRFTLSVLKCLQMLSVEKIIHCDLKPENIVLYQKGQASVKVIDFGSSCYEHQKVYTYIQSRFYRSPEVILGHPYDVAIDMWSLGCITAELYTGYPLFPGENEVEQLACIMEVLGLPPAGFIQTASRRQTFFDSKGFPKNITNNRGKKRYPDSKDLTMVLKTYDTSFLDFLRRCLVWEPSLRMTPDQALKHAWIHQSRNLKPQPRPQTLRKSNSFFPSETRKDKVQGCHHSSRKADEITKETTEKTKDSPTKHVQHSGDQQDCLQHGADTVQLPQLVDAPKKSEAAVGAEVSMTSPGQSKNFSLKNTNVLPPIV

[7] = test system: Hepatocyte growth factor receptor (Homo sapiens), P08581 [M1250T]; assay: MET M1250T ProQinase selectivity panel; conditions: Compound concentration 1.0 uM
[8] = biological target: Serine/threonine-protein kinase Chk1 (Homo sapiens) (UniProt O14757); assay: CHK1 ProQinase selectivity panel; conditions: Compound concentration 1.0 uM
[9] = biological target: Serine/threonine-protein kinase Nek9 (Homo sapiens) (UniProt Q8TD19); assay: NEK9 ProQinase selectivity panel; conditions: Compound concentration 1.0 uM
Chain of Serine/threonine-protein kinase Nek9 (Homo sapiens) (Q8TD19 whole entry): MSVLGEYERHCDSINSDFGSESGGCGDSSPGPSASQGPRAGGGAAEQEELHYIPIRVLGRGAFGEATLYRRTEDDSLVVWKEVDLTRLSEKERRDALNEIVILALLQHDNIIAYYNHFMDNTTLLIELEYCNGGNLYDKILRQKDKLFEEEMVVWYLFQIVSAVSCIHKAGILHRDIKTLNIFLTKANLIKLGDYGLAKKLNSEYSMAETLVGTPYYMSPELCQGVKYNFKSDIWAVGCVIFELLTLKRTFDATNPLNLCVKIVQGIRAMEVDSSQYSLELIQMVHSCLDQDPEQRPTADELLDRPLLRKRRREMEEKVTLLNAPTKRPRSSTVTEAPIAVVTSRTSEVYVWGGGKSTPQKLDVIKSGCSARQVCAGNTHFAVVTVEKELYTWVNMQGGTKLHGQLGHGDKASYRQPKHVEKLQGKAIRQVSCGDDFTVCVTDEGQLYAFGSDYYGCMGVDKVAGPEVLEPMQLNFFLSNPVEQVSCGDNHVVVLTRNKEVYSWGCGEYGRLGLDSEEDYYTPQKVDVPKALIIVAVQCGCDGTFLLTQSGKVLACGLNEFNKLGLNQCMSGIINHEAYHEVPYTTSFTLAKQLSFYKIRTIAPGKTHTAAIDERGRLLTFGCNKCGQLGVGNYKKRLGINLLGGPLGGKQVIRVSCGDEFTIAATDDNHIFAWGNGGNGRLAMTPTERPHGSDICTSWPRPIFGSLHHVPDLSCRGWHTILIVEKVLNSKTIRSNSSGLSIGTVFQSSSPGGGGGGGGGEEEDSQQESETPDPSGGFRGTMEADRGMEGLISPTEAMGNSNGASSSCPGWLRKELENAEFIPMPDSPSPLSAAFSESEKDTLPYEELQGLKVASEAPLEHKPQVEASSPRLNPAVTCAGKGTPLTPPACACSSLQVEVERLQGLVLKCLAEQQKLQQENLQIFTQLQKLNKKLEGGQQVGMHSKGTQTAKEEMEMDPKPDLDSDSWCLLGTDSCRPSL

[10] = biological target: Mitogen-activated protein kinase 11 (Homo sapiens, UniProt Q15759); assay: NanoBRET (MAPK11)
Chain of Mitogen-activated protein kinase 11 (Q15759 whole entry): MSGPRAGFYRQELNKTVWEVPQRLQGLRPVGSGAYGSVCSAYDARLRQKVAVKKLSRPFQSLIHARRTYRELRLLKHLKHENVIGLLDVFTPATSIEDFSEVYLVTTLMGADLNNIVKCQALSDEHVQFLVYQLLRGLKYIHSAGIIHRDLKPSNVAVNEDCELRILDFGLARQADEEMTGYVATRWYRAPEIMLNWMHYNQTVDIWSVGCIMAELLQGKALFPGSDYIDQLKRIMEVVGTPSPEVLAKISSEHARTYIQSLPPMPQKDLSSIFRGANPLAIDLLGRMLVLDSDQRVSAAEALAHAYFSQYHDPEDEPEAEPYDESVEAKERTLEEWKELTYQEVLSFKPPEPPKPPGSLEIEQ

[11] = biological target: Sodium-dependent serotonin transporter (Homo sapiens) (UniProt P31645); conditions: Compound concentration 10.0 uM
Chain of Sodium-dependent serotonin transporter (Homo sapiens) (P31645 whole entry, looked up): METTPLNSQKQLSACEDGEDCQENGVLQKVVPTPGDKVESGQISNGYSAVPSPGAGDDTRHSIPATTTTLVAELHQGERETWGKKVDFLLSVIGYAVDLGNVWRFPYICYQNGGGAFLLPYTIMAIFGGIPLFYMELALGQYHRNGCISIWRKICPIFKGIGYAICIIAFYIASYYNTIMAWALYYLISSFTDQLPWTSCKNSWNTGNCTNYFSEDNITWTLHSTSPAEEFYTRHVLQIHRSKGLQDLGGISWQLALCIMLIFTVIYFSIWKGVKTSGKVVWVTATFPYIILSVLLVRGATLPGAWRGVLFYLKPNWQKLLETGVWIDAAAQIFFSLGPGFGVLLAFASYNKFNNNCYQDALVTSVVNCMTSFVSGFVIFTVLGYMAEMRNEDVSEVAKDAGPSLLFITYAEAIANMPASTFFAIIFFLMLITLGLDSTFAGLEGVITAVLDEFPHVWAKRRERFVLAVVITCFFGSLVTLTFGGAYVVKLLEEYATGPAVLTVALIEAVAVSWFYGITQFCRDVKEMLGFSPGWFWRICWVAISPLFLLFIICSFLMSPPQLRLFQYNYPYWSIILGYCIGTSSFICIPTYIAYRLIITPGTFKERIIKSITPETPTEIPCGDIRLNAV

[12] = biological target: Serine/threonine-protein kinase TAO2 (Homo sapiens) (UniProt Q9UL54); assay: TAOK2 ProQinase selectivity panel; conditions: Compound concentration 1.0 uM
Chain of Serine/threonine-protein kinase TAO2 (Homo sapiens) (Q9UL54 whole entry): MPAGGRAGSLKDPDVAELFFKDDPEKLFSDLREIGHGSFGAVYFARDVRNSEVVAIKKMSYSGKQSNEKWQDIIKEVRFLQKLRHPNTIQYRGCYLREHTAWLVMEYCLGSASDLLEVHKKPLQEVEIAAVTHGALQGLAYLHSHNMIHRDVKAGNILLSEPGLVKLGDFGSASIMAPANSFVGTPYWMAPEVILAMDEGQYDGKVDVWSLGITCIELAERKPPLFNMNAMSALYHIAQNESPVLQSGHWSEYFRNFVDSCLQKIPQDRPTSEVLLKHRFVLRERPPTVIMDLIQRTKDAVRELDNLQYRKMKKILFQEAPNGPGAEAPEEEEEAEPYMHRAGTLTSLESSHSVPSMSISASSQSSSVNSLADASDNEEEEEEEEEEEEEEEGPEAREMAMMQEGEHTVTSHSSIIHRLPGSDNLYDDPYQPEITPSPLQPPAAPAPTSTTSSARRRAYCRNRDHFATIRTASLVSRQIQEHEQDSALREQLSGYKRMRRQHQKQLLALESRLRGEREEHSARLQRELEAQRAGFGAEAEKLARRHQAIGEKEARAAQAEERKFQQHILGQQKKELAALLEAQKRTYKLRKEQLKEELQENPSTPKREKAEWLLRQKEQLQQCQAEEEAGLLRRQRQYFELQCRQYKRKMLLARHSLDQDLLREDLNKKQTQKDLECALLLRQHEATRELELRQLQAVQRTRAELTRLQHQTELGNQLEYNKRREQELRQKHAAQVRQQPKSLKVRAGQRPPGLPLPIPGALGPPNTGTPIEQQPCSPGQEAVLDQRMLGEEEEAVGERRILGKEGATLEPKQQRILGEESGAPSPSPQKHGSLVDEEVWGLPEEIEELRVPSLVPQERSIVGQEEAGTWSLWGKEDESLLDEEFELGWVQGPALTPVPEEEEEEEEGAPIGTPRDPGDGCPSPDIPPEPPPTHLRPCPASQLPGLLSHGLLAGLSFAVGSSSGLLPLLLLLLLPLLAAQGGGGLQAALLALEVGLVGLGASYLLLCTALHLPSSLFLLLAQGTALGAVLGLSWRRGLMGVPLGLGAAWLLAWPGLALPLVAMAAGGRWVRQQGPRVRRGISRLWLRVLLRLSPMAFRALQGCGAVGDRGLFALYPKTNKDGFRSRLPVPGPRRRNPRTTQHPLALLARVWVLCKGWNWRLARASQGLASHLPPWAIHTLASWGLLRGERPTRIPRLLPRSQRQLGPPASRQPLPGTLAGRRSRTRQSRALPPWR

[13] = biological target: Homeodomain-interacting protein kinase 4 (Homo sapiens) (UniProt Q8NE63); assay: HIPK4 ProQinase selectivity panel; conditions: Compound concentration 1.0 uM
[14] = biological target: 5-hydroxytryptamine receptor 2B (Homo sapiens, UniProt P41595); assay: GPCRScan assay: inhibition of 5-HT2B; parameters: radioligand conc. used [nm] 1.0 – 2.0, parental cells stable HEK
Chain of 5-hydroxytryptamine receptor 2B (P41595 whole entry): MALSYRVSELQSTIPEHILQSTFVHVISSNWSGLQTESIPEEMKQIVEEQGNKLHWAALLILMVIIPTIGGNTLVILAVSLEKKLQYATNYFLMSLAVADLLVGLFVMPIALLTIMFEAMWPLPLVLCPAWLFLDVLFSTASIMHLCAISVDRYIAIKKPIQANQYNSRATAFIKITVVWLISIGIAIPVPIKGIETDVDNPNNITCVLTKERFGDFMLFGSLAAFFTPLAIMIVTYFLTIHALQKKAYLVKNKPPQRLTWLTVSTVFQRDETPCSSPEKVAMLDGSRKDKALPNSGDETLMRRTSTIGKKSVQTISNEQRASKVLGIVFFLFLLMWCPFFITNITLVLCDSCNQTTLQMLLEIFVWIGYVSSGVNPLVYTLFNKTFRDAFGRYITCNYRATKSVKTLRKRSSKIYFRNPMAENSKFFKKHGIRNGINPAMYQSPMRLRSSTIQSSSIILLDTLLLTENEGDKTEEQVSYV

[15] = biological target: Dual specificity protein kinase CLK2 (Homo sapiens) (UniProt P49760); assay: CLK2 ProQinase selectivity panel; conditions: Compound concentration 1.0 uM
[16] = biological target: Tyrosine-protein kinase Tec (Homo sapiens) (UniProt P42680); assay: TEC ProQinase selectivity panel; conditions: Compound concentration 1.0 uM
Chain of Tyrosine-protein kinase Tec (Homo sapiens) (P42680 whole entry): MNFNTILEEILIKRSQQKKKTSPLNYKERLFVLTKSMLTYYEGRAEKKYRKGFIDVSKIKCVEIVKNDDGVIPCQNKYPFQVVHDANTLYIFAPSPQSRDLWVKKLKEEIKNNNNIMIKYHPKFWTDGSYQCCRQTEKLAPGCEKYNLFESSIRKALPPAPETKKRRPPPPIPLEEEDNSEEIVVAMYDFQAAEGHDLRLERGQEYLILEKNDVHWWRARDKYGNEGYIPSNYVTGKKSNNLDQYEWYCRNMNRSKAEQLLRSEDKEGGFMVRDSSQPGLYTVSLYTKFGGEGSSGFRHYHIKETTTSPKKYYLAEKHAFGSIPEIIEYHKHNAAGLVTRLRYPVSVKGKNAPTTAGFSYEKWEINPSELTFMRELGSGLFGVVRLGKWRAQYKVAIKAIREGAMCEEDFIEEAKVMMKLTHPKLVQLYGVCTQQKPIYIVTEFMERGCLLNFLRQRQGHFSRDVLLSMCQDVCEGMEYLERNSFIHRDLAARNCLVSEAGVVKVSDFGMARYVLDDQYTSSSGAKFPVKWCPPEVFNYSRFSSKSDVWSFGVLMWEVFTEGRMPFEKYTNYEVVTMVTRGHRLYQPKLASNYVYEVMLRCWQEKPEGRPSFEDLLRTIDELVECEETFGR

[17] = biological target: Serine/threonine-protein kinase 26 (Homo sapiens) (UniProt Q9P289); assay: MST4 ProQinase selectivity panel; conditions: Compound concentration 1.0 uM

% Residual activity with Skepinone-L [1]: 77%
% Residual activity with Skepinone-L [2]: 90%
% Residual activity with Skepinone-L [3]: 110%
% Residual activity with Skepinone-L [4]: 106%
% Residual activity with Skepinone-L [5]: 94%
% Residual activity with Skepinone-L [6]: 93%
% Residual activity with Skepinone-L [7]: 100%
% Residual activity with Skepinone-L [8]: 94%
IC50 [10]: 40.2 nM (active)
inhibition [11]: 20.7%
% Residual activity with Skepinone-L [12]: 102%
% Residual activity with Skepinone-L [13]: 116%
Ki ([14]; read-out: Ki): 172 nM
Ki ([14]; read-out: pKi (converted)): 166 nM
% Residual activity with Skepinone-L [15]: 89%
% Residual activity with Skepinone-L [16]: 115%
% Residual activity with Skepinone-L [17]: 106%
SMILES: O=C1c2ccc(Nc3ccc(F)cc3F)cc2CCc2ccc(OC[C@H](O)CO)cc21 [Skepinone-L]
% Residual activity with Skepinone-L [9]: 104%
